Assay [1] concerns mouse peritoneal macrophages (MPM). The assay can be described thus: Cytotoxicity on mouse peritoneal macrophages (MTT reduction). The assay is classed as cell-based. Conditions: for IC50: Peritoneal macrophage, mouse peritoneal macrophages, MTT reduction. On the procedure: Leishmania parasites were collected at late exponential growth phase by centrifugation at 1610× g at 4 °C. Elicited mouse peritoneal macrophages (MPM) were obtained from 8-week-old Balb/c mice through i.p. injection with 1 mL of 10% thioglycolate medium 72 h before extraction. Macrophages were obtained by peritoneal washing (10 mL PBS, 4 °C).
(§1) Both activities were assessed by inhibition of MTT (3-(4,5-dimethylthiazol-2-yl)-2,5-diphenyltetrazolium bromide) reduction, as described in [34]. Samples were made in triplicate and assays were repeated at least twice. DMSO content in the medium was adjusted to 0.25% v/v (final concentration), regardless of the final concentration of the drug, and for the control, the untreated parasites. ICx (inhibitory concentration that inhibits parasite growth or enzymatic activity by x%) was calculated using the statistical module of SigmaPlot v11.0 software.

In another assay the target is T1, hGSK-3β (Homo sapiens, UniProt P49841).
T1 construct: purchased Millipore
T1 sequence (P49841 whole entry): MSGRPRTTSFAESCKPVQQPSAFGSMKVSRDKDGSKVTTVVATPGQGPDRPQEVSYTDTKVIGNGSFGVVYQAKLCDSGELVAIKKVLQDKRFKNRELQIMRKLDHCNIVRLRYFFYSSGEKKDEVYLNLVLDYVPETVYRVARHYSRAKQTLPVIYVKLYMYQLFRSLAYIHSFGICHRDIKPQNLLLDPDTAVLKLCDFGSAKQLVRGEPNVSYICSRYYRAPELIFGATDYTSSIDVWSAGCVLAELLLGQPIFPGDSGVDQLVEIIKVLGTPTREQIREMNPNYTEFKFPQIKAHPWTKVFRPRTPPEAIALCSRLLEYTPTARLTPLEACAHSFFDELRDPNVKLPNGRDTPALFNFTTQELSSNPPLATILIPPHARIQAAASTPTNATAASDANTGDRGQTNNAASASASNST
The assay can be described thus: Inhibition of human recombinant GSK-3β. It is filed as biochemical. Conditions: read-out: percentage of inhibition of hGSK-3β. On the procedure: (§2) Extraction, purification, and evaluation of compounds against recombinant LdGSK-3s was carried out as described. For that, a recombinant LdGSK-3s with a His-tag was obtained as inclusion bodies, that were further solubilized, and purified by chromatography first on a Ni^2+ column an in a second step on a DEAE (diethylaminoethyl) ionic exchange column. Samples were made in duplicate, and assays were repeated at least three times. IC50 (inhibitory concentration that decreases enzymatic activity by 50%) was calculated using the statistical module of SigmaPlot v11.0 software. Evaluation of compounds against hGSK-3β was performed using human recombinant GSK-3β purchased from Millipore as described previously. Compounds were prepared as a 10 mM stock solution in DMSO.

The subject of assay [2] is L. donovani promastigotes. Put plainly: Sub G0/G1 population (propidium iodide flow cytometry). It is filed as cell-based, Leishmania donovani. Conditions: 72 h. Here is the method: L. donovani promastigotes (2 × 10^6 cells/mL) in RPMI-HIFCS were incubated with each compound in 24-well plates for 72 h at 26 °C by duplicate. Next, compounds were removed by washing with HBSS-Glc (15,700× g, 4 min, 4 °C) and cells were resuspended in […] of HBSS-Glc, fixed and permeabilized by addition of 200 μL 70% cold EtOH and incubated overnight at 4 °C. Ethanol was removed by centrifugation and cellular pellets washed with HBSS-Glc. Finally, cells were resuspended in 500 μL HBSS-Glc with 20 μg/mL propidium iodide (PI) and 3 mg/mL Ribonuclease A, and incubated in darkness at r. t. for 30 min. PI fluorescence was measured in a Coulter XL EPICS flow cytometer (Beckman Coulter, Nyon, Switzerland) (λEXC = 488 nm, λEM = 620 nm).
Each assay was repeated at least twice. Untreated cells were used as control for a standard cell cycle histogram, and Miltefosine (hexadecylphosphocholine) (15 μM) was used as control for an apoptosis-inducing respiratory inhibitor [51].
Parasites were incubated with the corresponding drug for 72 h, followed by EtOH permeabilization, incubated with 3 mg/mL Ribonuclease A and stained with 20 μg/mL of propidium iodide (PI) before cytofluorometric analysis. (λEXC = 488 nm, λEM = 620 nm). The percentage of subG0/G1 population (enclosed within green bars) stands for degraded chromatin, associated with the apoptotic-like process. Miltefosine (hexadecylphosphocholine, HePc) at 15 μM was added as a control for induction of apoptosis.

Assay [3] deals with L. pifanoi axenic amastigotes. The assay can be described thus: Leishmanicidal activity on axenic amastigotes (MTT reduction). The assay is classed as cell-based, Leishmania pifanoi. Conditions: Leishmania pifanoi.
Assay [4] has as its system L. infantum promastigotes. The assay can be described thus: Leishmanicidal activity on promastigotes (MTT reduction), Table 2 and Table S1. The assay is classed as cell-based, Leishmania infantum. The following applies: Leishmania infantum. Here is the method: as §1
In a step ahead, the leishmanicidal activity of the compounds on L. pifanoi axenic amastigotes and L. infantum promastigotes was evaluated. Axenic Leishmania amastigotes afford the appraisal of the leishmanicidal activity without the constrains imposed on the access of the compounds to intracellular amastigotes within the parasitophorous vacuole, as well as to preclude the interference of the compounds via host–parasite interface in the final activity. For that, the axenic line of L. pifanoi amastigotes belonging to the mexicana complex was chosen, as in this species the infectivity, antigenicity, and metabolic identity between axenic and intracellular amastigotes have been consistently validated.

Assay [5] deals with T2, LdGSK-3s (Leishmania donovani, UniProt A6N857). Put plainly: Mechanism of inhibition of LdGSK-3s (kinetics versus ATP, Eadie–Scatchard plot). It is filed as biochemical. The following applies: ATP 1 to 10 μM, inhibitor 2.5 and 5 μM, GS2 25 μM. On the procedure:
Briefly, kinetic experiments were carried out at four different concentrations of ATP (10, 5, 2.5, and 1 µM), in the absence or presence of the inhibitors, at either 2.5 or 5 µM, while the phospho-glycogen synthase peptide-2 (GS2) substrate was kept constant at 25 µM. The data were processed using Microsoft Excel software and results presented as Eadie–Scatchard plots (v vs. v/[ATP]).

Assay [6] deals with T2, LdGSK-3s. Put plainly: Inhibition of recombinant LdGSK-3s with Kinase Glo. It is filed as biochemical. The following applies: for IC50: recombinant LdGSK-3s, Kinase Glo. Here is the method:
as §2

Assay [7] relates to L. donovani promastigotes. The assay can be described thus: Mitochondrial membrane depolarization (Rhodamine 123 accumulation). It is filed as cell-based, Leishmania donovani. Conditions: 4 h.
In assay [8] the test system is intracellular L. pifanoi amastigotes. The assay can be described thus: Parasite load of macrophages infected with mCherry-L. pifanoi amastigotes. The assay is classed as cell-based, Leishmania pifanoi.
Assay [9] deals with L. donovani promastigotes. Put plainly: Leishmanicidal activity on promastigotes (MTT reduction), Table 1. The assay is classed as cell-based. The following applies: Leishmania donovani.

The text below walks through data of article PMC9139002, “Naphthoquinone as a New Chemical Scaffold for Leishmanicidal Inhibitors of Leishmania GSK-3” (Biomedicines, 2022).

T2 sequence (A6N857 entry or part of it): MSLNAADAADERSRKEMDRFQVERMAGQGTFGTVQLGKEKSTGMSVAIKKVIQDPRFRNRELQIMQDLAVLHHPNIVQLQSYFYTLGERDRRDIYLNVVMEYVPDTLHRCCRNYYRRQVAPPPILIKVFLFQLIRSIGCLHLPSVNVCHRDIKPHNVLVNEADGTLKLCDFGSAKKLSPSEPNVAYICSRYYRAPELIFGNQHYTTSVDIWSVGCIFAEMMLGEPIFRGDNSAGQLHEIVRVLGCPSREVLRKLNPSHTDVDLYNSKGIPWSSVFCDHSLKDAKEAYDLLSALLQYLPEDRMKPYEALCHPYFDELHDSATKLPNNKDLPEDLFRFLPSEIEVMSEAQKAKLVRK

On to `CC(C)OC(=O)NC1=C(Cl)C(=O)c2ccccc2C1=O` [Compound 2, Isopropyl-(3-chloro-1,4-naphthoquinone-2-yl)carbamate], for which the IC50 amounted to 4510 ± 300 nM in [1], 400 ± 200 nM in [3], 1470 ± 20 nM in [4] and 2500 ± 200 nM at LdGSK-3s [6]. Also, the inhibition at 10 µM at hGSK-3β amounted to 25%. For the same compound, the “percentage of subG0/G1 population” value in assay [2] (2 μM (IC80)) is recorded as 59.6 ± 1.1%. Further, the “mechanism of inhibition of LdGSK-3s” value on LdGSK-3s [5] was “ATP competitive inhibitors”. Also, the “decrease of Rh123 fluorescence” value in [7] (2 μM (IC80)) is on record as 26.4%. Besides, the “decrease in parasite load” value in assay [8] (2 μM) turned out to be 76.3%.

In the case of `O=C1C=C(O)C(=O)c2c(O)c(Cl)c(Cl)c(O)c21` [MBC-10], the IC50 in assay [9] is 10500 ± 1200 nM; in assay [3] it was 11200 ± 2500 nM; in assay [4] it was 10500 ± 1200 nM; at LdGSK-3s [6], roughly 10000 nM. Further, at LdGSK-3s [6] (at 10 μM), the inhibition at 10 µM was 45.7%.

In the case of `COC(=O)NC1=C(Cl)C(=O)c2ccccc2C1=O` [MBC-132], the “Selectivity Index (SI)” value in assay [1] (IC50 MPM/IC50 axenic amastigotes) was 5.1. Further, the half-inhibitory concentration (IC50) was 2600 nM in assay [1]; 1510 ± 20 nM in assay [9]; 510 ± 10 nM in assay [3]; 1510 ± 20 nM in assay [4]; 2500 ± 100 nM on LdGSK-3s [6]. For the same compound, at hGSK-3β, the inhibition at 10 µM amounted to 19%. In addition, the “percentage of subG0/G1 population” value in [2] (3 μM (IC80)) came to 63.2 ± 0.3%. Further, the “decrease in Rh123 accumulation” value in assay [7] (3 μM (IC80)) is roughly 70%. Further, in [8] (1 μM), the “decrease in parasite load” value was 39.1%.
